Experimental findings from patent publication US7785583B2, “In situ maturation of dendritic cells” (Argos Therapeutics, Inc., priority 2002, dated 2010) are described below.

Experiment [1] has as its system OVA-expressing EL-4 cells. Nature of the experiment: Induction of OVA-specific CTL in mice immunized with OVA mRNA transfected DC (standard cytotoxicity assay). Type of experiment: in vivo, mice (C57BL/6). As to the method:
FIG. 4 is a graph depicting the induction of OVA CTL in mice immunized with OVA mRNA transfected DC. Mice were immunized as described in FIG. 3 except that DC were not stained with CFSE. Splenocytes were harvested after 8 days and either analyzed directly for CTL (left panel) or incubated for 5 days in the presence of OVA mRNA transfected DC (right panel). CTL activity was determined using a standard cytotoxicity assay and OVA-expressing EL-4 cells, and EL-4 cells as targets. (iDC: immature DC; mDC: mature DC; solid gray square: iDC and OVA-expressing EL-4 cells; solid black oval: […] adjuvant and OVA-expressing EL-4 cells; solid black square: mDC and OVA-expressing EL-4 cells; open gray square: iDC and EL4 cells; open black oval: […] adjuvant and EL4 cells; open black square: mDC and EL4 cells). FIG. 5 is a graph depicting the induction of OVA specific CTL with immature DC during in situ maturation with Imiquimod (sold under the trademark […] by 3M of St. Paul, Minn., United States of America) and poly arginine. Experimental details are as described for FIG. 4. Here, in addition to […] adjuvant, Imiquimod ([…] brand) and poly arginine (poly-arg) were used to induce local “inflammation” prior to immunization with the OVA mRNA transfected immature DC. The […] clinically approved cream formulation of Imiquimod was applied to the ear surface 15 minutes prior to DC injection. Poly-arg was injected into the ear pinna (50 μl; 100 μg/ml) 15 minutes prior to DC injection. (open square: iDC; solid circle: […] adjuvant; solid triangle: […] adjuvant; open triangle: iDC+poly-arginine; solid square: mDC). FIG. 6 is a graph depicting the induction of OVA specific CTL with immature DC during in situ maturation with Imiquimod ([…] brand). […] Antigen loaded immature or mature DC were injected into the ear pinna and mice were evaluated for (a) migration of the DC to the draining auricular lymph node or (b) induction of OVA CTL. […] See […], Mohr H., “A fluorescence-based assay for quantitation of lymphokine-activated killer cell activity”, J Immunol Methods (1989) 119:45-51.

Experiment [2] relates to immature DC injected into the ear pinna. Description: Migration of CFSE-labelled injected DC to the draining auricular lymph node (flow cytometry). The format is in vivo, mice (C57BL/6). Particulars: interval between adjuvant application and DC injection extended to 4 hours; determined as in FIG. 3. As to the method:
FIG. 3 depicts flow cytometry analysis of the migration of DC to the draining lymph nodes. Immature or mature DC were transfected with OVA mRNA and incubated with CFSE. Cells were washed and 3×10^5 DC were injected into the ear pinna. […] United States of America). Twenty-four hours post […] of the DC, the draining auricular lymph node was dissected, a cell suspension generated, and cells were analyzed by flow cytometry. To identify the DC subset, cells gated for CD11c^+ granular cells (upper panels) were analyzed for class II expression and CFSE content (lower panels). Injected DC are class II^high CFSE^+ (UR quadroon) whereas the class II^highCFSE^− represent the resident and newly arrived, endogenous, DC (UL quadroon). The percentages shown in the UR quadroons constitute the percentage of CFSE^+ DC injected into the ear found in the lymph node.
Marrow from tibias and femurs of C57BL/6 mice were harvested followed by treatment of the precursors with ammonium chloride Tris buffer for 3 min at 37° C. to deplete the red blood cells. The precursors were plated in RPMI-5% FCS with GM-CSF (15 ng/ml) and IL-4 (10 ng/ml). GM-CSF-containing supernatant was harvested after 24 h capillary culture from GM-CSF producing melanoma cell line (F10.9/GM-CSF) and IL-4 was obtained from Peprotech (Rocky Hill, N.J., United States of America). The concentration of GM-CSF used was determined by ELISA. […]
On the technique in general: In flow cytometry, cells or beads pass a laser one at a time.

The mark [3] stands for this setting: FIG. 5, injection site pretreated 15 minutes prior to injection of OVA mRNA transfected immature DC.

As to `CC(C)Cn1cnc2c(N)nc3ccccc3c21` [Imiquimod], the “CTL response (OVA-specific CTL)” value is listed as “almost as effective as ADJUPRIME™ adjuvant” in experiment [1] (setting [3]) and “more potent CTL response than the ex vivo matured DC” in experiment [1] (FIG. 6, Imiquimod (ALDARA brand) applied 4 hours before injection of OVA mRNA transfected immature DC). Also, in experiment [2], the “migration, % of the injected DC” value was found to be 9.2%.

Take poly arginine [poly-arg]: the “CTL response (OVA-specific CTL)” value in experiment [1] (setting [3]) was “the effect of poly-arg is small”.
